Assay results published in ChEMBL document CHEMBL1201862, “PubChem BioAssay data set” (2004).
Where “and” joins values, the source holds several entries; their conditions need not be identical. Identical values can stand only once. Calls of active or inactive are those of the source.

Legend:
[1] = target: Cytochrome P450 2C19 (Homo sapiens, UniProt P33261); assay: Cytochrome panel assay with activity outcomes. Panel member name: p450-cyp2c19 Compounds with AC50 equal or less than 10 uM are considered active; assay type: functional; details: read-out: AC50
Cytochrome P450 2C19, sequence (P33261 whole entry): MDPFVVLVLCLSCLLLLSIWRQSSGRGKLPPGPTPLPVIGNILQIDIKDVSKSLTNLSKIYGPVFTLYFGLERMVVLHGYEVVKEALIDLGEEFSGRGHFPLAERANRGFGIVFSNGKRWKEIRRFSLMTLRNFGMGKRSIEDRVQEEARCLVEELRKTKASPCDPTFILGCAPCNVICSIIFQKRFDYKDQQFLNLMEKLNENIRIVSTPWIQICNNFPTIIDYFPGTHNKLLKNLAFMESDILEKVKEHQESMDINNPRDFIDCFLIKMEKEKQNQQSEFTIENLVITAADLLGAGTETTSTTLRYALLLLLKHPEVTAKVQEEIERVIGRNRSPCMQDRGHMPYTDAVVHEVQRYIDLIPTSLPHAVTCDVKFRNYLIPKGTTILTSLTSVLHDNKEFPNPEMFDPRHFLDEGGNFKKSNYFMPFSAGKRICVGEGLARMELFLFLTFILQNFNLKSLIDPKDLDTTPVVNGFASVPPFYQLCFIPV

[2] = target: T1, Cytochrome P450 1A2 (Homo sapiens, UniProt P05177)
T1 sequence (P05177 whole entry): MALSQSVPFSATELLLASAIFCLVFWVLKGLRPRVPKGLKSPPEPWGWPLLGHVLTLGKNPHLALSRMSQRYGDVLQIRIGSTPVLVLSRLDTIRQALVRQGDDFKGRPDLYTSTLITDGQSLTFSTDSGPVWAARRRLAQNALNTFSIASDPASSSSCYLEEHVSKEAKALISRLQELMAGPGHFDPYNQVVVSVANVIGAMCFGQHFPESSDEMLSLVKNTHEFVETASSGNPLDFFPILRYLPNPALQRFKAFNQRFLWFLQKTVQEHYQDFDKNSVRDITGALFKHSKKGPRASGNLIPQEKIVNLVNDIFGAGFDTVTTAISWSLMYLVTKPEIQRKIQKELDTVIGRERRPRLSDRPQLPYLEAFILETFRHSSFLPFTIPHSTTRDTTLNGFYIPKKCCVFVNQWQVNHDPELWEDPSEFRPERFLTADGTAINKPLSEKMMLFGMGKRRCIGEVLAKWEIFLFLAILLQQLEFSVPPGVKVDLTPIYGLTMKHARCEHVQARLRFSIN

[3] = Luminescence Cell-Based Dose Retest to Confirm Inhibitors of Cancer Stem Cells. [Related pubchem assays (depositor defined):AID2717, AID2721]; assay type: functional; details: Homo sapiens
[4] = cells; assay type: functional
[5] = tested on: BJ; assay: cytotoxicity toward BJ-TERT-LT-ST fibroblasts, dose response, cell-based, RAS-independent, luminescence (AID 1935); assay type: functional; details: Homo sapiens;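 note: BJ fibroblasts immortalized with TERT plus LT and ST oncogenes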
[6] = cytotoxicity toward DRD oncogenic fibroblasts, dose response, cell-based, non-viral oncogenic, luminescence (AID 1934); assay type: functional; details: Homo sapiens
[7] = tested on: BJ; assay: cells; assay type: functional, cell-based; details: Homo sapiens
[8] = tested on: BJ; assay: cytotoxicity toward BJ-TERT fibroblasts, dose response, cell-based, RAS-independent, luminescence (AID 1933); assay type: functional; details: Homo sapiens
[9] = target: Cytochrome P450 3A4 (Homo sapiens, UniProt P08684);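 note: CYP3A4 tested as one member of a cytochrome P450 panel screen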
Cytochrome P450 3A4, sequence (P08684 whole entry): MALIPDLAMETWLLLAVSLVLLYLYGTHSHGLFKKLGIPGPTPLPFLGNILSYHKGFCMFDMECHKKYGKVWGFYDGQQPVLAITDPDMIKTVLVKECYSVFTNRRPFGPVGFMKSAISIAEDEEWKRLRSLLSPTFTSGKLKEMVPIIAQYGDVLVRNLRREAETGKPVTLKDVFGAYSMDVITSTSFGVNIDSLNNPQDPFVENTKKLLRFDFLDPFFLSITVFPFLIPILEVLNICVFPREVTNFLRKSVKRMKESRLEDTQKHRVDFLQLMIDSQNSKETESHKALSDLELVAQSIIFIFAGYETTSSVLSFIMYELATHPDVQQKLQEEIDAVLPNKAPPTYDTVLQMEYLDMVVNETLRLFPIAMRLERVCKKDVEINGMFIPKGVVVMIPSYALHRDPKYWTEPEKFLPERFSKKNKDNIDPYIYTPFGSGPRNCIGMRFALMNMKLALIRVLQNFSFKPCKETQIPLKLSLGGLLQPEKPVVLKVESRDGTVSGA

[10] = inhibitors of SNCA 5'UTR-driven reporter translation, confirmation, H4 neuroglioma cells, luminescence (AID 1988); assay type: functional, cell-based
[11] = inhibitors of firefly luciferase expression or activity, dose response, H4 neuroglioma cells, luminescence (AID 1990); assay type: functional, cell-based
[12] = Luminescence Cell-Based Dose Response HTS to Identify Inhibitors of 5'UTR Stem-Loop Driven Prion Protein mRNA Translation in H4 Neuroglioblastoma Cells. [Related pubchem assays: 1827 (Project Summary), 1813 (Primary HTS)]; assay type: functional
[13] = target: Cytochrome P450 2C9 (Homo sapiens, UniProt P11712)
Cytochrome P450 2C9, sequence (P11712 whole entry): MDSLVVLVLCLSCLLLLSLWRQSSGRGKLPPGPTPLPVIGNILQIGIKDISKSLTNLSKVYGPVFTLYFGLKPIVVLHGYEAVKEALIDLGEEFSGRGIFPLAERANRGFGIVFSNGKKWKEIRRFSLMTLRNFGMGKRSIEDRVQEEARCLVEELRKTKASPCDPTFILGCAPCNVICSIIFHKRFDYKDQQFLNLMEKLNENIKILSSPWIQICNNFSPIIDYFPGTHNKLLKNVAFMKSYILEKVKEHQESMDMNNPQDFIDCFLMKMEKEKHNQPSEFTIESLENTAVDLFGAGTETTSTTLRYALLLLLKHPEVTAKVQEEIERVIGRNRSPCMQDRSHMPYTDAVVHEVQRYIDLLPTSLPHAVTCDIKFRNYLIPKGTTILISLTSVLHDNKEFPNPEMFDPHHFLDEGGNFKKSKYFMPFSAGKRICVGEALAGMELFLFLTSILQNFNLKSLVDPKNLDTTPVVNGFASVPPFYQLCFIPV

[14] = tested on: H4; assay: Luminescence Cell-Based Dose Response HTS to Identify Activators of 5'UTR Stem-Loop Driven Prion Protein mRNA Translation in H4 Neuroglioblastoma Cells. [Related pubchem assays: 1829 (Project Summary), 1814 (Primary HTS)]; assay type: functional; details: Homo sapiens
[15] = Luminescence Cell-Based Dose Response HTS to Identify Activators of Luciferase Translation or Activity in H4 […] Cells. [Related pubchem assays: 1829 (Project Summary), 1814 (Primary HTS)]; assay type: functional
[16] = target: T2, Rac GTPase-activating protein 1 (Homo sapiens, UniProt Q9H0H5); assay: MgcRacGAP GTPase-activating activity inhibitors, confirmation, biochemical, ADP Hunter fluorescence, primary and confirmatory (AID 624330); assay type: functional
T2 sequence (Q9H0H5 whole entry): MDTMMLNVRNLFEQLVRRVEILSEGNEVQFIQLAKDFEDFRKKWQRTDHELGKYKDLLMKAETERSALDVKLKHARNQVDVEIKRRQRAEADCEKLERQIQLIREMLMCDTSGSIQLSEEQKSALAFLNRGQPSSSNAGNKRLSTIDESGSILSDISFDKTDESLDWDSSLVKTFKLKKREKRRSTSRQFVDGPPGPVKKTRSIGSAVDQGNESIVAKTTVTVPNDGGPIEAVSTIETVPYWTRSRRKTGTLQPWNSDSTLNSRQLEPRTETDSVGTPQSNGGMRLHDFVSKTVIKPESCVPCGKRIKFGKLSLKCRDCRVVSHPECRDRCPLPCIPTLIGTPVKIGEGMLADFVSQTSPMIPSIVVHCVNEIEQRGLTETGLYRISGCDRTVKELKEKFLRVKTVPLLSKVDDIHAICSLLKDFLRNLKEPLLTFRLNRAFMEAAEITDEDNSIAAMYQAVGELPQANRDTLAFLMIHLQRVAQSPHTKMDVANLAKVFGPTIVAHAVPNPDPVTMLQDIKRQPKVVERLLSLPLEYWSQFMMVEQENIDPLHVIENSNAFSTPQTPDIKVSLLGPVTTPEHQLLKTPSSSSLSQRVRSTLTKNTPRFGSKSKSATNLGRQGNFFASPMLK

O=C(O)c1cc(-c2ccc(-c3ccccc3)cc2)nc2cc3ccccc3cc12
AC50 [1]: 3.98 µM (inconclusive) | AC50 [2]: 0.794 µM (inconclusive)

COc1ccc2sc(-c3ccc(N(C)C)cc3)c(C#Cc3cncn3C)c2c1
AC50 [3]: 1.11 µM (active)

CCc1ccc(C(=O)COC(=O)c2ccc(Cl)nc2)cc1
IC50 [4]: > 50 µM (active)

CC(C)c1ccc(C2C3=C(O)OCC3=Nc3cc4c(cc32)OCO4)cc1 (stereo not given)
EC50 [5]: 0.386 µM (inconclusive) | EC50 [6]: 0.88 µM (active) | EC50 [7]: 5.49 µM (inconclusive) | EC50 [8]: 0.746 µM (inconclusive)

CCn1cc(C(=O)O)c(=O)c2cc3c(cc21)OCO3 [OXOLINIC ACID]
AC50 [2]: 5.01 µM (inconclusive) and 2.51 µM (inconclusive)

O=C(CN1CCN(c2ccc(Cl)cc2)CC1)Nc1ccc(F)c(F)c1
AC50 [9]: 25.1 µM (inconclusive) | AC50 [2]: 14.1 µM (inconclusive)

COC(=O)C1=C(C)N=C(C)/C(=C(/O)O[C@@H]2CCCN(Cc3ccccc3)C2)[C@@H]1c1cccc([N+](=O)[O-])c1
EC50 [10]: 9.3 µM (active) | EC50 [11]: 12 µM (active) | EC50 [12]: 14.6 µM (active)

CCOC(=O)C1=C(C)N=C(C)/C(=C(/O)OCC)C1c1ccccc1/C=C/C(=O)OC(C)(C)C (stereo not given)
AC50 [3]: 3.4 µM (active)

N#CC(C#N)=Cc1ccc([N+](=O)[O-])c(O)c1
AC50 [9]: 1.58 µM (inconclusive) | AC50 [13]: 31.6 µM (inconclusive) | AC50 [2]: 31.6 µM (inconclusive)

COc1cccc(Cn2c(=O)c(-c3cn(C)c4ccccc34)nc3cnc(N4CCOCC4)nc32)c1
AC50 [2]: 25.1 µM (inconclusive)

CN(CCc1ccc(Cl)c(Cl)c1)[C@H]1CCCC[C@H]1N1CCCC1
AC50 [2]: 31.6 µM (inconclusive)

COc1ccc(-c2c(-c3cc(OC)cc(OC)c3)n(C)c3ccc(-c4cc(F)cc(OC)c4)cc23)cc1
AC50 [3]: > 195 µM (inactive)

COc1ccccc1-n1c(SCC(=O)N2CCCC2)nc2cccnc21
AC50 [13]: 1 µM (inconclusive) | AC50 [2]: 0.1 µM (inconclusive)

COc1ccc2cc(-c3csc(-c4cccnc4)n3)ccc2c1
EC50 [14]: 22 µM (active) | EC50 [15]: 0.108 µM (inconclusive)

O=C1NCCc2c1[nH]c1ccc([N+](=O)[O-])cc21
EC50 [10]: 16.3 µM (active) | EC50 [11]: 12.9 µM (active) | EC50 [12]: 15.6 µM (active)

O=S(=O)(O)c1ccc(/N=N\c2ccc3c(S(=O)(=O)O)cccc3c2O)c2ccccc12
AC50 [2]: 3.16 µM (inconclusive)

Cc1ccc(OC(=O)c2ccc(Br)o2)cc1
IC50 [4]: 18.5 µM (active)

Cc1nnc(S)n1/N=C/c1ccc(OCc2ccc(Cl)cc2Cl)cc1
IC50 [4]: 43.8 µM (active)

CC(C)OCCCNc1nc2c(c(=O)n(Cc3ccccc3F)c(=O)n2C)n1C
EC50 [10]: > 120 µM (not active) | EC50 [11]: 16.8 µM (active) | EC50 [12]: > 120 µM (not active)

COc1ccc(C(=O)O/N=C/c2c(C(F)(F)F)nn(C)c2SCc2ccccc2Cl)cc1
EC50 [10]: 12 µM (active) | EC50 [11]: 17 µM (active) | EC50 [12]: 12.8 µM (active)

CN(C)S(=O)(=O)c1ccc(C(=O)Oc2ccccc2)cc1
IC50 [4]: 7.22 µM (active)

O=C(Cn1cc([N+](=O)[O-])nc1[N+](=O)[O-])N1CCN(c2ccccc2)CC1
IC50 [4]: 7.01 µM (active)

O=C(Cc1ccccc1)NC(NCCc1ccccc1)C(Cl)(Cl)Cl (stereo not given)
AC50 [2]: 25.1 µM (inconclusive)

Cc1ccc(/C=C2/C(=O)ON=C2c2ccccc2)o1
IC50 [16]: 36.9 µM (active) | EC50 [5]: > 150 µM (inconclusive) | EC50 [6]: 12.2 µM (active) | EC50 [7]: 18.3 µM (active) | EC50 [8]: 12.8 µM (active)

COc1ccccc1N1CCN(C(=O)CCc2nnc3ccc(N4CCC(C)CC4)nn23)CC1
EC50 [10]: 17.3 µM (active) | EC50 [11]: 11.2 µM (active) | EC50 [12]: > 120 µM (not active)

O=c1cc(-c2ccncc2)oc2c1ccc1ccccc12
IC50 [4]: 17.9 µM (active)

CCc1noc(C)c1C(=O)Nc1nc(-c2cc(C)ccc2C)c(C)s1
AC50 [1]: 7.08 µM (inconclusive) | AC50 [13]: 7.94 µM (inconclusive) | AC50 [2]: 15.8 µM (inconclusive)

O=C1CC(N(O)C2CC(=O)N(Cc3ccccc3)C2=O)C(=O)N1Cc1ccccc1 (stereo not given)
AC50 [1]: 2 µM (inconclusive) | AC50 [13]: 11.2 µM (inconclusive) | AC50 [2]: 39.8 µM (inconclusive)

COc1ccc2c(CC(=O)NCC3CCC(C(=O)O)CC3)cc(=O)oc2c1 (stereo not given)
AC50 [13]: 15.8 µM (inconclusive) | AC50 [2]: 22.4 µM (inconclusive)

Cc1cc(C)c(NC(=O)CSCc2c(C)noc2C)c(C)c1
AC50 [3]: > 195 µM (inactive)

COc1ccccc1N1CCN(C(=O)c2ccc([N+](=O)[O-])s2)CC1
IC50 [4]: 46.4 µM (active)

Cc1cc(C)nc(NC(=NC(=O)Nc2ccc(Cl)cc2)NCCc2c[nH]c3ccccc23)n1
AC50 [3]: 2.28 µM (active)

COc1ccc(-c2nc(CS(=O)(=O)CC(=O)NCCCc3ccccc3)c(C)o2)cc1
EC50 [10]: 14.5 µM (active) | EC50 [11]: > 120 µM (not active) | EC50 [12]: > 120 µM (not active)

CCOC(=O)COc1ccc(C(=O)Nc2cccc(Cl)c2C)cc1
IC50 [4]: 0.52 µM (active)

CC(=O)c1cc2c(ccc3ccccc32)oc1=O
IC50 [4]: 15.4 µM (active)

c1cnc(N2CC[C@@]3(CCCNC3)C2)nc1
AC50 [9]: 31.6 µM (inconclusive) | AC50 [2]: 25.1 µM (inconclusive)

Cc1ccc(NC(=O)C(C)N2C(=O)C3C4CC(C(Br)C4Br)C3C2=O)cc1 (stereo not given)
AC50 [2]: 25.1 µM (inconclusive)

CCc1nc(SCC(=O)NC2CC2)c2c(C)c(C)sc2n1
EC50 [10]: > 120 µM (not active) | EC50 [11]: 16.7 µM (active) | EC50 [12]: > 120 µM (not active)

COc1ccc(NN/C=C2/C(=O)NC(=O)N(c3ccc(C)c(C)c3)C2=O)cc1
EC50 [10]: > 120 µM (not active) | EC50 [11]: 15.2 µM (active) | EC50 [12]: > 120 µM (not active) | AC50 [3]: 0.716 µM (active)

CN1CCN(CC(=O)Nc2ccc([N+](=O)[O-])cc2C(=O)c2ccccc2)CC1
EC50 [5]: > 150 µM (not active) | EC50 [6]: > 150 µM (not active) | EC50 [7]: > 150 µM (not active) | EC50 [8]: > 150 µM (not active)

CCNc1ncc2nc(-c3ccc(OC)cc3)c(=O)n(CCC#N)c2n1
AC50 [9]: 15.8 µM (inconclusive) | AC50 [2]: 10 µM (inconclusive)

Cc1c(C)c2ccc(OCC(=O)Nc3cccnc3)c(C)c2oc1=O
EC50 [14]: 16 µM (active) | EC50 [15]: 22 µM (active)

CCOC(=O)C1CSC(CC(=O)Nc2ccc(Cl)c(Cl)c2)C(=O)N1 (stereo not given)
IC50 [4]: 36.2 µM (active)

Cc1ccc(NC(=O)/C=C/c2ccc3c(c2)OCO3)nc1
AC50 [3]: 1.08 µM (active)
